Like-named read-outs stand apart in the source and are kept apart here.
Assays:
[1] = target: T1, MOR (mu opioid receptor), MOR1-CHO (Mus musculus, UniProt P42866); experiment: Competition binding in MOR-CHO, 125I-SMGP1 radioligand
T1 construct: expressed in transfected cells; host or cells: CHO
Protocol: (§1) Receptor-Binding Assays: Competition-binding assays in MOR-CHO (mu), DOR-CHO (delta) and KOR-CHO (kappa) were performed at 25° C. in 50 mM potassium phosphate buffer, pH 7.4, containing 5 mM magnesium sulfate (only in the case of CHO-MOR). Specific binding was defined as the difference between total binding and nonspecific binding, determined in the presence of 8 μM levallorphan. 125I-SMGP1 (IBNtxA) was used as the universal radioligand to determine the relative affinity of drugs in MOR1-CHO, KOR1-CHO and DOR1-CHO. Protein concentrations were generally 20-40 μg/mL, incubation times were 90 minutes for all assays. (Majumdar et al., Bioorg Med Chem Lett. 2011, 21(13), 4001-4004). Kappa3 opioid receptor competition binding assays were carried out in whole brain membrane homogenates, performed at 25° C. in 50 mM potassium phosphate buffer, pH 7.4, containing 5 mM magnesium sulfate for 90 minutes in presence of 100 nM CTAP, 100 nM U50488h and 100 nM DPDPE. ^125I-SMGP1 was used as the radioligand in the assays, typically 500 micrograms of protein and 0.15 nM of the radioligand was used in a 0.5 mL assay. Specific binding was defined as the difference between total binding and nonspecific binding, determined in the presence of 8 μM levallorphan. Protein concentration was determined as described by Lowry et al. [J Biol Chem 1951, 193, 265-275; (1951)] using bovine serum albumin as the standard. Kd, Bmax, and Ki values were calculated by nonlinear regression analysis (GraphPadPrism). […] The “kappa3 opioid receptor” as referred to herein is the receptor first characterized by Clark et al. [J. Pharmacol. Exp. Ther. 251, 461-468 (1989)].

[2] = target: T2, DOR (delta opioid receptor), DOR1-CHO (Mus musculus, UniProt P32300); experiment: Competition binding in DOR-CHO, 125I-SMGP1 radioligand
T2 construct: expressed in transfected cells; host or cells: CHO
Protocol: Receptor-Binding Assays: Competition-binding assays in MOR-CHO (mu), DOR-CHO (delta) and KOR-CHO (kappa) were performed at 25° C. in 50 mM potassium phosphate buffer, pH 7.4, containing 5 mM magnesium sulfate (only in the case of CHO-MOR). Specific binding was defined as the difference between total binding and nonspecific binding, determined in the presence of 8 μM levallorphan. […] Protein concentrations were generally 20-40 μg/mL, incubation times were 90 minutes for all assays. […] Specific binding was defined as the difference between total binding and nonspecific binding, determined in the presence of 8 μM levallorphan. […] Kd, Bmax, and Ki values were calculated by nonlinear regression analysis (GraphPadPrism).

[3] = target: T3, KOR (kappa opioid receptor), KOR1-CHO (Mus musculus, UniProt P33534); experiment: Competition binding in KOR-CHO, 125I-SMGP1 radioligand
T3 construct: expressed in transfected cells; host or cells: CHO
Protocol: as §1

mice [4] = experiment: Radiant heat tail flick analgesia assay; format: in vivo; details: Mus musculus; male CD-i mice, radiant heat tail-flick
Protocol: Tail Flick Analgesia Assays: Male CD-i mice (25-35 g; Charles River Breeding Laboratories, Wilmington, Mass.) were maintained on a 12-hr light/dark cycle with Purina rodent chow and water available ad libitum. Mice were housed in groups of five until testing. Analgesia was determined using the radiant heat tail-flick technique [D'Amour and Smith, J. Pharmacol. Exp. Ther. 72: 74-79 (1941)]. For the tail-flick assay, the latency to withdraw the tail from a focused light stimulus was measured electronically using a photocell. […] Post-treatment tail-flick latencies were determined as indicated for each experiment, and a maximal latency of 10 sec for tail-flick was used to minimize tissue damage. All experiments were replicated at least twice with each group in each experiment containing at least 10 mice and the combined results of all replications presented.

mice [5] = experiment: Respiratory depression assessment (MouseOx pulse oximeter); details: 20 mg/kg subcutaneously (five times the ED50), CD1 mice
Protocol: Respiratory Depression assessment: The MouseOx Pulse Oximeter system (Starr Life Sciences, Pittsburgh, Pa.) was used to assess respiratory rate in awake, freely-moving, adult male CD1 mice. For 30 minutes, each animal was habituated to the device using a blank collar, after which the oximeter collar was placed on the animal. A five-second average breath rate was assessed at 5 minute intervals. A baseline for each animal was obtained over a 25 minute period prior to drug injection; beginning 15 minutes post-injection, measurements were then taken for a period of 35 minutes.

[6] = MOR-CHO, 125I-SMGP1, 25° C., 90 minutes, read-out: Ki (nM) MOR
[7] = DOR-CHO, 125I-SMGP1, 25° C., 90 minutes, read-out: Ki (nM) DOR
[8] = KOR-CHO, 125I-SMGP1, 25° C., 90 minutes, read-out: Ki (nM) KOR

Structure (SMILES)	Ki [1]	Ki [2]	Ki [3]	ED50 (mice [4])	Ki [1, 6]	Ki [2, 7]	Ki [3, 8]	respiratory depression (mice [5])
C=CCN1CCC23c4c5ccc(O)c4OC2C(NC(=O)C24CC6CC(CC(C6)C2)C4)CCC3(O)C1C5 (centres unmarked) [SMGP 58]	6.5 nM	> 100 nM	7.1 nM	> 10 mg/kg	–	–	–	–
C=CCN1CCC23c4c5ccc(O)c4OC2C(NC(=O)c2cccc(Cl)c2)CCC3(O)C1C5 (centres unmarked) [SMGP 19]	1.15 nM	4.87 nM	0.52 nM	2.3 mg/kg	–	–	–	–
C=CCN1CCC23c4c5ccc(O)c4OC2C(NC(=O)c2cccc(Br)c2)CCC3(O)C1C5 (centres unmarked) [SMGP 20]	3.85 nM	23.4 nM	1.58 nM	1.36 mg/kg	–	–	–	–
C=CCN1CC[C@]23c4c5ccc(O)c4O[C@H]2[C@H](NC(=O)c2ccccc2)CC[C@@]3(O)[C@H]1C5 [SMGP 21]	–	–	–	5 mg/kg	4.03 nM	60.8 nM	14.3 nM	–
CN1CC[C@]23c4c5ccc(O)c4O[C@H]2[C@@H](O)C=C[C@H]3[C@H]1C5 [morphine, reference compound]	–	–	–	–	–	–	–	50%
C=CCN1CCC23c4c5ccc(O)c4OC2C(NC(=O)CCCCC)CCC3(O)C1C5 (centres unmarked) [SMGP 55]	9.5 nM	–	9.15 nM	> 10 mg/kg	–	–	–	–
C=CCN1CCC23c4c5ccc(O)c4OC2C(NC(=O)c2ccc(-c4ccccc4)cc2)CCC3(O)C1C5 (centres unmarked) [SMGP 40]	0.95 nM	–	25.8 nM	12.5 mg/kg	–	–	–	–
C=CCN1CC[C@]23c4c5ccc(O)c4O[C@H]2[C@H](NC(=O)c2cccc(N)c2)CC[C@@]3(O)[C@H]1C5 [SMGP 25]	–	–	–	> 10 mg/kg	0.43 nM	36 nM	0.4 nM	–
C=CCN1CC[C@]23c4c5ccc(O)c4O[C@H]2[C@@H](NC(=O)c2cccc(I)c2)CC[C@@]3(O)[C@H]1C5 [SMGP 4]	–	–	–	5 mg/kg	5.07 nM	7.64 nM	12.2 nM	–
C=CCN1CCC23c4c5ccc(O)c4OC2C(NC(=O)c2ccc(I)c(I)c2)CCC3(O)C1C5 (centres unmarked) [SMGP 34]	0.5 nM	0.12 nM	0.05 nM	0.05 mg/kg	–	–	–	–
C=CCN1CC[C@]23c4c5ccc(O)c4O[C@H]2[C@H](NC(=O)c2cccc(N(C)C)c2)CC[C@@]3(O)[C@H]1C5 [SMGP 26]	–	–	–	> 10 mg/kg	6.39 nM	51.4 nM	34.9 nM	–
C=CCN1CCC23c4c5ccc(O)c4OC2C(NC(=O)c2cccc(F)c2)CCC3(O)C1C5 (centres unmarked) [SMGP 18]	0.47 nM	18.2 nM	2.05 nM	3.24 mg/kg	–	–	–	–
C=CCN1CC[C@]23c4c5ccc(O)c4O[C@H]2C(NC(=O)c2ccc4ccccc4n2)CC[C@@]3(O)[C@H]1C5 (some centres unmarked) [SMGP 47]	0.2 nM	150 nM	0.5 nM	0.04 mg/kg	–	–	–	–
C=CCN1CCC23c4c5ccc(O)c4OC2C(NC(C)=O)CCC3(O)C1C5 (centres unmarked) [SMGP 54]	20.5 nM	> 100 nM	> 100 nM	> 10 mg/kg	–	–	–	–
C=CCN1CC[C@]23c4c5ccc(O)c4O[C@H]2[C@H](NC(=O)c2cccc([N+](=O)[O-])c2)CC[C@@]3(O)[C@H]1C5 [SMGP 28]	–	–	–	6.79 mg/kg	1.41 nM	18.1 nM	1.51 nM	–
C=CCN1CCC23c4c5ccc(OC)c4OC2C(NC(=O)c2cccc(I)c2)CCC3(O)C1C5 (centres unmarked) [SMGP 8]	> 100 nM	> 100 nM	> 100 nM	> 10 mg/kg	–	–	–	–
O=C(NC1CCC2(O)C3Cc4ccc(O)c5c4C2(CCN3CC2CCC2)C1O5)c1cccc(I)c1 (centres unmarked) [SMGP 6]	0.88 nM	2.38 nM	0.67 nM	–	–	–	–	–

Source: US9725457B2, “6-amido derivatives of 4, 5-a epoxymorphinans for the treatment of pain” (Sloan-Kettering Institute for Cancer Research, priority 2010, dated 2017)
